Legend:
ADAR1 = biological target: T1, ADAR1 (Homo sapiens, UniProt P55265); test: ADAR1 Inhibition Assay (IFN fold-induction, Quanti-Luc luminescence, p110 KO A549 dual cells); format: cell-based; details: IFN fold-induction vs DMSO, 24 and 48 h
T1 construct: endogenous in cells; host or cells: p110 KO A549 dual cells
T1 sequence (P55265 1-1226): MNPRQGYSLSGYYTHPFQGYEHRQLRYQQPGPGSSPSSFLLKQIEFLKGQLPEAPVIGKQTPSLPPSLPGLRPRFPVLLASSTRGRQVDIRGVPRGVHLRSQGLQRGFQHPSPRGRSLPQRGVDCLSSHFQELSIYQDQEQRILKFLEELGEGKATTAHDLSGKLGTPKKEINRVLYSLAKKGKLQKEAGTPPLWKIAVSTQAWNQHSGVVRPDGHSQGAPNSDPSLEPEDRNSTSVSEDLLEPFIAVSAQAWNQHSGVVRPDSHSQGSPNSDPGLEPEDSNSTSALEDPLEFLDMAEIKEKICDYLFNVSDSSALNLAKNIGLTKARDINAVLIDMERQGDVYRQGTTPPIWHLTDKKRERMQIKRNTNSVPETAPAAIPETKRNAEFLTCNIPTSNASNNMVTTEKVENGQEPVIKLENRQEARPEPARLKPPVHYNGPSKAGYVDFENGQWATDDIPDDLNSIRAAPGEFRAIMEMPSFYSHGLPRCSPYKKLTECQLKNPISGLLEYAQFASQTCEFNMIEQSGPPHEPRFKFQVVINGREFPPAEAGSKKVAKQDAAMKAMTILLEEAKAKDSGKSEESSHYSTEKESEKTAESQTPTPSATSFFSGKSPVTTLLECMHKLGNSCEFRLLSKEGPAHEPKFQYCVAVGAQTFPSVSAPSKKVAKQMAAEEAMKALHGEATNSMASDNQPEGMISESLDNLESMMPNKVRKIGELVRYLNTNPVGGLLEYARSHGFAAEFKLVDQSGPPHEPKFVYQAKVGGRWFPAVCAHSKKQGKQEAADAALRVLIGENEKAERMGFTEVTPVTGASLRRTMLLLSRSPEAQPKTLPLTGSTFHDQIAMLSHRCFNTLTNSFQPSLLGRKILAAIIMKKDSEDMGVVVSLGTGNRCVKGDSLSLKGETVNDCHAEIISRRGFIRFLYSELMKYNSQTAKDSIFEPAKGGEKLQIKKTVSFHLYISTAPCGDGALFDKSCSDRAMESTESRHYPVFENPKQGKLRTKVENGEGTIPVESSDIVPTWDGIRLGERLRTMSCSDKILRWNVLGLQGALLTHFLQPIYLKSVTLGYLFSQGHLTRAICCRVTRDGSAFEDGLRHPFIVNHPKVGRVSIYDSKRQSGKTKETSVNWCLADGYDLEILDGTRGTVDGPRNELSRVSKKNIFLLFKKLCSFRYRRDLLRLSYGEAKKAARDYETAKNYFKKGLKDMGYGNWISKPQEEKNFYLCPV
Method in brief: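 p110 KO A549 dual cells (20,000/well) in supplemented DMEM, treated next day with compound at 1% final DMSO for 24 and 48 h at 37 °C, 5% CO2. Supernatant luminescence read with Quanti-Luc; IFN fold-induction = sample RLU/mean DMSO RLU, used for EC50.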

Zα domain of ADAR1 p150 = biological target: T2, Zα domain of ADAR1 p150 (Homo sapiens, UniProt P55265); test: SPR binding assay; details: 6× his tag Zα domain immobilized on CM5 chip, analyte 0-25 μM
T2 construct: 10 μg/ml of Zα domain of ADAR1 was immobilized on CM5 chip using anti-HIS antibody; made in house
T2 sequence (P55265 133-199 limits assumed): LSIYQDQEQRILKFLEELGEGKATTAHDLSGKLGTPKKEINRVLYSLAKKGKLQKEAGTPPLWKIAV
Method: 6× his tag Za domain of ADAR1 p150 was purified using bacterial purification system. Protein was isolated from supernatant of cell lysate using Ni-NTA resin. For binding assay using SPR, 10 μg/ml of Zα domain of ADAR1 was immobilized on CM5 chip using anti-HIS antibody. Binding was quantified using the following condition below: • Analyte: 25, 12.5, 6.25, 3.125, 1.56, 0.78, 0 μM • Contact time—60 seconds, • Dissociation time—320 seconds • Flow rate—30 μL/minute Running buffer-PBSP+5% DMSO • After curve fitting, Kd values for synthesized compounds was quantified using the instrument software.

| SMILES | EC50 (ADAR1) | Kd (Zα domain of ADAR1 p150) |
| --- | --- | --- |
| CCOC(=O)c1cc(-c2ccccc2)sc1NC(=O)COC(=O)c1cccc(OS(=O)(=O)F)c1 [Compound 302] |  | ≤ 1 µM |
| CCOC(=O)c1cc(P(=O)(OCC)OCC)sc1NC(=O)COC(=O)c1cccc(NS(C)(=O)=O)c1 [Compound 345] | > 100 µM |  |
| CCOC(=O)c1cc(-c2ccccc2)sc1NC(=O)CNC(=O)Cc1cccc(P(=O)(OCC)OCC)c1 [Compound 348] | > 100 µM |  |
| CCOC(=O)c1cc(-c2ccccc2)sc1NC(=O)Cn1cc(CN(c2cccc(N)c2)S(C)(=O)=O)nn1 [Compound 353] | > 100 µM |  |
| CCOC(=O)c1cc(-c2ccccc2)sc1NC(=O)CNC(=O)Cc1ccc(OS(C)(=O)=O)c(NS(C)(=O)=O)c1 [Compound 368] | > 100 µM |  |
| CCOC(=O)c1sc(-c2ccccc2)cc1NC(=O)COC(=O)c1cccc(P(=O)(OCC)OCC)c1 [Compound 370] | > 100 µM |  |
| CCOC(=O)c1cc(-c2ccccc2)ncc1NC(=O)COC(=O)c1cccc(P(=O)(OCC)OCC)c1 [Compound 381] | > 100 µM |  |
| CCOC(=O)c1cc(-c2ccccc2)ncc1NC(=O)COC(=O)c1cccc(P(=O)(O)O)c1 [Compound 382] | > 100 µM |  |
| CCOC(=O)c1cc(-c2ccccc2)sc1NC(=O)C1CCCN1C(=O)c1cccc(P(=O)(OCC)OCC)c1 (stereo not drawn) [Compound 383] | > 100 µM |  |
| CCOC(=O)c1cc(-c2ccc(P(=O)(OCC)OCC)cc2)sc1NC(=O)COC(=O)c1cccc(P(=O)(OCC)OCC)c1 [Compound 390] | > 100 µM |  |
| CCOC(=O)c1cc(-c2ccccc2)sc1NC(=O)CN(C)C(=O)c1cccc(P(=O)(OCC)OCC)c1 [Compound 392] | 50 to 100 µM |  |
| CCOC(=O)c1cc(-c2ccccc2)sc1NC(=O)[C@@H]1CCCN1C(=O)c1cccc(P(=O)(OCC)OCC)c1 [Compound 393] | > 100 µM |  |
| CCOC(=O)c1cc(-c2ccccc2)sc1NC(=O)[C@H]1CCCN1C(=O)c1cccc(P(=O)(OCC)OCC)c1 [Compound 394] | > 100 µM |  |
| CCOC(=O)c1cc(-c2ccccc2)sc1NC(=O)Cn1cc(CNC(=O)c2cccc(P(=O)(OCC)OCC)c2)nn1 [Compound 401] | > 100 µM |  |
| CCOC(=O)c1cc(-c2ccccc2)sc1NC(=O)C1CCCN1C(=O)c1cccc(P(=O)(O)O)c1 (stereo not drawn) [Compound 404] | 50 to 100 µM |  |
| CCOC(=O)c1nc(-c2ccccc2)oc1NC(=O)COC(=O)c1cccc(P(=O)(OCC)OCC)c1 [Compound 407] | 50 to 100 µM |  |
| CCOC(=O)c1cc(-c2ccccc2)[nH]c1NC(=O)CNC(=O)c1cccc(P(=O)(OCC)OCC)c1 [Compound 408] | 50 to 100 µM |  |
| CCOC(=O)c1cc(-c2ccccc2)sc1NC(=O)COC(=O)c1cccc(OP(=O)(N[C@H](C)C(=O)OC(C)C)Oc2ccccc2)c1 (stereo partly drawn) [Compound 411] | > 100 µM |  |
| CCOC(=O)c1cc(-c2ccccc2)sc1NC(=O)[C@@H]1CCCN1C(=O)c1cccc(P(=O)(O)O)c1 [Compound 413] | > 100 µM |  |
| CCOC(=O)c1cc(-c2ccccc2)sc1NC(=O)Cn1cc(C(=O)Nc2cccc(P(=O)(OCC)OCC)c2)nn1 [Compound 417] | > 100 µM |  |
| CCOC(=O)c1cc(-c2ccc(P(=O)(OCC)OCC)cc2)sc1NC(=O)COC(=O)c1cccc(S(N)(=O)=O)c1 [Compound 429] | > 100 µM |  |
| CCOC(=O)c1cc(-c2ccccc2)sc1NC(=O)CNC(=O)CCc1cccc(P(=O)(O)O)c1 [Compound 432] |  | ≤ 1 µM |
| CCOC(=O)c1cc(-c2ccccc2)sc1NC(=O)CNC(=O)CCc1cccc(P(=O)(OCC)OCC)c1 [Compound 436] |  | ≤ 1 µM |
| CCNC(=O)c1cc(-c2ccccc2)sc1NC(=O)CNC(=O)c1ccc(P(=O)(OCC)OCC)cc1 [Compound 437] |  | ≤ 1 µM |

Results, then the compound that gave them:

| EC50 (ADAR1) | Kd (Zα domain of ADAR1 p150) | SMILES |
| --- | --- | --- |
| > 100 µM | ≤ 1 µM | CCOC(=O)c1cc(-c2ccccc2)sc1NC(=O)CNC(=O)c1cccc(NS(C)(=O)=O)c1 [Compound 13] |
| ≤ 25 µM | ≤ 1 µM | CCOC(=O)c1cc(-c2ccccc2)sc1NC(=O)COC(=O)c1cccc(NS(C)(=O)=O)c1 [Compound 66, Ethyl 2-(2-((3-(methylsulfonamido)benzoyl)oxy)acetamido)-5-phenylthiophene-3-carboxylate] |
| > 100 µM | > 25 µM | CCOC(=O)c1cc(-c2ccccc2)sc1NC(=O)COC(=O)c1cccc(C(F)(F)F)c1 [Compound 70] |
| > 100 µM | ≤ 1 µM | CCOC(=O)c1cc(-c2ccccc2)sc1NC(=O)COC(=O)c1cccc(C#N)c1 [Compound 71] |
| > 100 µM |  | CCOC(=O)c1cc(-c2ccccc2)sc1NC(=O)CNC(=O)Cc1cccc(S(C)(=N)=O)c1 (stereo not drawn) [Compound 338] |
| > 100 µM |  | CCOC(=O)c1cc(-c2ccccc2)sc1NC(=O)CNC(=O)c1ccc2ccn(S(C)(=O)=O)c2c1 [Compound 339] |
| > 100 µM |  | CCOC(=O)c1cc(-c2ccccc2)sc1NC(=O)COC(=O)c1ccc2ccn(S(C)(=O)=O)c2c1 [Compound 340] |
| > 100 µM |  | CCOC(=O)c1cc(-c2ccccc2)sc1NC(=O)CNC(=O)c1cccc(CNS(C)(=O)=O)c1 [Compound 342] |
| > 100 µM |  | CCOC(=O)c1cc(NC(=O)COC(=O)c2cccc(NS(C)(=O)=O)c2)nn1-c1ccccc1 [Compound 347] |
| > 100 µM |  | CCOC(=O)c1cc(-c2ccccc2)[nH]c1NC(=O)COC(=O)c1cccc(NS(C)(=O)=O)c1 [Compound 352] |
| > 100 µM |  | CCOC(=O)c1sc(-c2ccccc2)cc1NC(=O)COC(=O)c1cccc(NS(C)(=O)=O)c1 [Compound 354] |
|  | 1 to 10 µM | CCOC(=O)c1sc(-c2ccccc2)cc1NC(=O)CNC(=O)Cc1cccc(NS(C)(=O)=O)c1 [Compound 357] |
| > 100 µM |  | CCOC(=O)c1cc(-c2ccccc2)sc1NC(=O)Cn1cc(CSc2cccc(NS(C)(=O)=O)c2)nn1 [Compound 360] |
| > 100 µM |  | CCOC(=O)c1cc(-c2ccccc2)sc1NC(=O)Cn1cc(CS(=O)(=O)c2cccc(NS(C)(=O)=O)c2)nn1 [Compound 362] |
| > 100 µM |  | CCOC(=O)c1cc(-c2ccccc2)sc1NC(=O)CNC(=O)Cc1cccc(S(N)(=O)=O)c1 [Compound 371] |
| > 100 µM |  | CCOC(=O)c1cc(-c2ccccc2)sc1NC(=O)COC(=O)c1nonc1NS(C)(=O)=O [Compound 374] |
| > 100 µM |  | CCOC(=O)c1ccnc(-c2ccccc2)c1NC(=O)COC(=O)c1cccc(NS(C)(=O)=O)c1 [Compound 375] |
| > 100 µM |  | CCOC(=O)c1cc(-c2ccccc2)sc1NC(=O)CNC(=O)/C=C/c1cccc(NS(C)(=O)=O)c1 [Compound 377] |
| > 100 µM |  | CCOC(=O)c1cc(-c2ccccc2)sc1NC(=O)COC(=O)c1ccc2cc(NS(C)(=O)=O)ccc2c1 [Compound 378] |
| > 100 µM |  | CCOC(=O)c1cc(-c2ccccc2)sc1NC(=O)COC(=O)c1cccc(S(=O)(=O)NC(C)(C)C)c1 [Compound 379] |
| > 100 µM |  | CCOC(=O)c1cc(P(=O)(O)O)sc1NC(=O)COC(=O)c1cccc(NS(C)(=O)=O)c1 [Compound 391] |
| 50 to 100 µM |  | CCNC(=O)c1cc(-c2ccccc2)sc1NC(=O)CNC(=O)c1cccc(NS(C)(=O)=O)c1 [Compound 410] |
| > 100 µM |  | CCOC(=O)c1sc(-c2ccccc2)cc1NC(=O)COC(=O)c1cccc(S(N)(=O)=O)c1 [Compound 423] |
| > 100 µM |  | CCOC(=O)c1cc(-c2ccccc2)sc1NC(=O)C1CCN(C(=O)c2cccc(S(N)(=O)=O)c2)C1 (stereo not drawn) [Compound 425] |
|  | ≤ 1 µM | CCOC(=O)c1cc(-c2ccccc2)sc1NC(=O)CN(C)C(=O)c1cccc(P(=O)(O)O)c1 [Compound 435] |
|  | ≤ 1 µM | CCOC(=O)c1cc(-c2ccccc2)sc1NC(=O)CNC(=O)c1cccc(C(=O)O)c1 [Compound 439] |
